Experimental findings from patent US9533961B2, “Molecules having certain pesticidal utilities, and intermediates, compositions, and processes related thereto” (priority 2014, dated 2017) are described below.

Type in all cases: in vivo
The subject of data set [1] is Beet Armyworm (Spodoptera exigua, LAPHEG) ("BAW"). Briefly: Bioassay on Beet Armyworm (BAW), 128-well diet tray assay. Conditions: 168 h, 50 μg/cm^2 on artificial diet, second instar larvae, five to seven days, 25° C., average of eight wells, read-out: BAW % Control (or Mortality) rating. How it is done:
(§1) Certain molecules disclosed in this document were tested against BAW and CEW using procedures described in the following examples. In the reporting of the results, the “BAW & CL Rating Table” was used (See Table Section).
Bioassays on BAW were conducted using a 128-well diet tray assay. one to five second instar BAW larvae were placed in each well (3 mL) of the diet tray that had been previously filled with 1 mL of artificial diet to which 50 μg/cm^2 of the test compound (dissolved in 50 μL of 90:10 acetone-water mixture) had been applied (to each of eight wells) and then allowed to dry. Trays were covered with a clear self-adhesive cover and held at 25° C., 14:10 light-dark for five to seven days. Percent mortality was recorded for the larvae in each well; activity in the eight wells was then averaged. The results are indicated in the table entitled “Table ABC: Biological Results” (See Table Section).

For data set [2], the system named is Yellow Fever Mosquito (Aedes aegypti, AEDSAE) ("YFM"). Briefly: Bioassay on Yellow Fever Mosquito (YFM), 96-well plate larval assay. Conditions: about 1 day-old larvae, from 4000 ppm master plate, scored on mortality after 3 days. The procedure:
Certain molecules disclosed in this document were tested against YFM using procedures described in the following paragraph. In the reporting of the results, the “YFM Rating Table” was used (See Table Section).
Master plates containing 400 μg of a molecule dissolved in 100 μL of dimethyl sulfoxide (DMSO) (equivalent to a 4000 ppm solution) are used. A master plate of assembled molecules contains 15 μL per well. To this plate, 135 μL of a 90:10 water:acetone mixture is added to each well. A robot (Biomek® NXP Laboratory Automation Workstation) is programmed to dispense 15 μL aspirations from the master plate into an empty 96-well shallow plate (“daughter” plate). There are 6 reps (“daughter” plates) created per master. The created daughter plates are then immediately infested with YFM larvae.
The day before plates are to be treated, mosquito eggs are placed in Millipore water containing liver powder to begin hatching (4 g. into 400 mL). After the daughter plates are created using the robot, they are infested with 220 μL of the liver powder/larval mosquito mixture (about 1 day-old larvae). After plates are infested with mosquito larvae, a non-evaporative lid is used to cover the plate to reduce drying. Plates are held at room temperature for 3 days prior to grading. After 3 days, each well is observed and scored based on mortality.

Data set [3] relates to Cabbage Looper (Trichoplusia ni, TRIPNI) ("CL"). Put plainly: Bioassay on Cabbage Looper (CL), 128-well diet tray assay. Conditions: 168 h, read-out: CL % Control (or Mortality) rating. The procedure: as §1
Bioassays on CL were conducted using a 128-well diet tray assay. one to five second instar CL larvae were placed in each well (3 mL) of the diet tray that had been previously filled with 1 mL of artificial diet to which 50 μg/cm^2 of the test compound (dissolved in 50 μL of 90:10 acetone-water mixture) had been applied (to each of eight wells) and then allowed to dry. Trays were covered with a clear self-adhesive cover and held at 25° C., 14:10 light-dark for five to seven days. Percent mortality was recorded for the larvae in each well; activity in the eight wells was then averaged. The results are indicated in the table entitled “Table ABC: Biological Results” (See Table Section).

Regarding `O=C(Nc1ccc(-c2ncn(-c3ccc(OC(F)(F)C(F)(F)F)cc3)n2)cc1)c1ccc(Oc2ccccc2)cc1` [F10, N-(4-(1-(4-(perfluoroethoxy)phenyl)-1H-1,2,4-triazol-3-yl)phenyl)-4-phenoxybenzamide], the mortality at 50 µg/cm2 in data set [1] and in data set [3] was 0% each time. In addition, the “YFM % Control (or Mortality) rating” value in data set [2] is reported as “D (No activity noticed in this bioassay)”.

Take `Cc1cc(F)ccc1-c1ccccc1C(=O)NCc1ccc(-c2ncn(-c3ccc(OC(F)(F)F)cc3)n2)cc1` [F40, 4′-Fluoro-2′-methyl-N-(4-(1-(4-(trifluoromethoxy)phenyl)-1H-1,2,4-triazol-3-yl)benzyl)biphenyl-2-carboxamide]: the mortality at 50 µg/cm2 in data set [1] and in data set [3] was 50 to 100% each time. The “YFM % Control (or Mortality) rating” value in data set [2] is on record as “D (No activity noticed in this bioassay)”.

Turning to `Cc1ccc(-c2ccccc2C(=O)NCc2ccc(-c3ncn(-c4ccc(OC(F)(F)F)cc4)n3)cc2)c(C)c1` [F33, 2′,4′-Dimethyl-N-(4-(1-(4-(trifluoromethoxy)phenyl)-1H-1,2,4-triazol-3-yl)benzyl)biphenyl-2-carboxamide], the mortality at 50 µg/cm2 in data set [1] lay within 0 to 50%; in data set [3], 50 to 100%. For the same compound, the “YFM % Control (or Mortality) rating” value in data set [2] is listed as “A (80-100)”.

For the compound `CC(C)c1cccc(C(=O)Nc2ccc(-c3ncn(-c4ccc(OC(F)(F)F)cc4)n3)cc2)c1` [F15, 3-Isopropyl-N-(4-(1-(4-(trifluoromethoxy)phenyl)-1H-1,2,4-triazol-3-yl)phenyl)benzamide], the results for the mortality at 50 µg/cm2 in data set [1] and in data set [3] were 0% and 50 to 100%, respectively. In addition, the “YFM % Control (or Mortality) rating” value in data set [2] was “D (No activity noticed in this bioassay)”.

For the compound `Cc1ccc(Cl)cc1-c1ccccc1C(=O)NCc1ccc(-c2ncn(-c3ccc(OC(F)(F)F)cc3)n2)cc1` [F34, 5′-Chloro-2′-methyl-N-(4-(1-(4-(trifluoromethoxy)phenyl)-1H-1,2,4-triazol-3-yl)benzyl)biphenyl-2-carboxamide], the mortality at 50 µg/cm2 in data set [1] was 0%; in data set [3] it was 50 to 100%. Besides, the “YFM % Control (or Mortality) rating” value in data set [2] is listed as “D (No activity noticed in this bioassay)”.

In the case of `CCOc1ccccc1Oc1ccccc1C(=O)Nc1ccc(-c2ncn(-c3ccc(OC(F)(F)F)cc3)n2)cc1` [F17, 2-(2-Ethoxyphenoxy)-N-(4-(1-(4-(trifluoromethoxy)phenyl)-1H-1,2,4-triazol-3-yl)phenyl)benzamide], the mortality at 50 µg/cm2 in data set [1] was 0 to 50%; in data set [3] it was 0%. For the same compound, the “YFM % Control (or Mortality) rating” value in data set [2] is “D (No activity noticed in this bioassay)”.

`O=C(NCc1ccc(-c2ncn(-c3ccc(OC(F)(F)F)cc3)n2)cc1)c1ccccc1` [F32, N-(4-(1-(4-(trifluoromethoxy)phenyl)-1H-1,2,4-triazol-3-yl)benzyl)benzamide]: the mortality at 50 µg/cm2 in data set [1] and in data set [3] was 0% in each case. Also, the “YFM % Control (or Mortality) rating” value in data set [2] is on record as “D (No activity noticed in this bioassay)”.

On to `COc1ccc(C(=O)Nc2ccc(-c3ncn(-c4ccc(OC(F)(F)F)cc4)n3)cc2)cc1` [F26, 4-Methoxy-N-(4-(1-(4-(trifluoromethoxy)phenyl)-1H-1,2,4-triazol-3-yl)phenyl)benzamide], for which the mortality at 50 µg/cm2 in data set [1] and in data set [3] was 50 to 100% each time. Also, the “YFM % Control (or Mortality) rating” value in data set [2] is “D (No activity noticed in this bioassay)”.

In the case of `O=C(Nc1ccc(-c2ncn(-c3ccc(OC(F)(F)F)cc3)n2)cc1)c1ccc2c(c1)OC(F)(F)O2` [F22, 2,2-Difluoro-N-(4-(1-(4-(trifluoromethoxy)phenyl)-1H-1,2,4-triazol-3-yl)phenyl)benzo[d][1,3]dioxole-5-carboxamide], the mortality at 50 µg/cm2 in data set [1] and in data set [3] was 0% throughout.

Turning to `O=C(Nc1ccc(-c2ncn(-c3ccc(OC(F)(F)F)cc3)n2)cc1)c1cccc2c1OC(F)(F)O2` [F21, 2,2-Difluoro-N-(4-(1-(4-(trifluoromethoxy)phenyl)-1H-1,2,4-triazol-3-yl)phenyl)benzo[d][1,3]dioxole-4-carboxamide], the mortality at 50 µg/cm2 in data set [1] and in data set [3] was 50 to 100% throughout.
